Results: patent US20240116985A1, “STAPLED PEPTIDES AND METHODS THEREOF” (priority 2020, published 2024)
Values after ≈ are worked out from the molar mass of the structure shown. Like-named read-outs stand apart in the source and are kept apart here.

What was measured:
[1] = target: T1, full-length beta-Catenin (Uniprot ID P35222) (Homo sapiens, UniProt P35222); assay: Fluorescence polarization IC50 (beta-catenin / 5FAM-TCF4 10-53 competition); assay type: binding
T1 construct: 10 nM full-length beta-Catenin (Uniprot ID P35222)
T1 sequence (P35222 1-781): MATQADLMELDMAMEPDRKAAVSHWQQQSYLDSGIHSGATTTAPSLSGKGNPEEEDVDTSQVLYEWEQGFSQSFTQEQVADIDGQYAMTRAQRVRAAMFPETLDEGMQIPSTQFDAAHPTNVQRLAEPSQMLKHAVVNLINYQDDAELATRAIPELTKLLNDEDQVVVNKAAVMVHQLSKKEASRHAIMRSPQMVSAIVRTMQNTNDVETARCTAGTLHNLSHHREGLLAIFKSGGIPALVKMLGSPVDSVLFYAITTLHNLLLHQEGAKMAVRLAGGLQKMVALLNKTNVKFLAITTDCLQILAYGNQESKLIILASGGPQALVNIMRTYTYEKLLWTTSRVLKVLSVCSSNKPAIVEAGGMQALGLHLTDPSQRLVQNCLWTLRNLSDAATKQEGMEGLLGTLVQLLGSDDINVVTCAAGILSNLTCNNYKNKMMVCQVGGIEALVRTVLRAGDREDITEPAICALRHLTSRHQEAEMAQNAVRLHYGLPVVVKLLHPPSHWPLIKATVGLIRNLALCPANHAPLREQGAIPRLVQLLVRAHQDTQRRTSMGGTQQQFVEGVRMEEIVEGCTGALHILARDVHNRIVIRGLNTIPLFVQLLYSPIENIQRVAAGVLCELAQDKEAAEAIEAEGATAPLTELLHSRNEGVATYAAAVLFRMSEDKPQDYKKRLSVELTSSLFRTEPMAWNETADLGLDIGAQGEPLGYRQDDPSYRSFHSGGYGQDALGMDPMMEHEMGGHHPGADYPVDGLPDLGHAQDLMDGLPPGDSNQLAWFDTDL

[2] = target: T2, beta-catenin/TCF4 engagement (Homo sapiens, UniProt P35222); assay: Nano-BRET target engagement assay (B-cat-Halo & TCF4-Luc in HEK293 cells); assay type: cell-based
T2 construct: expressed in transfected cells; host or cells: HEK293
T2 sequence (P35222 1-781): T1 sequence (P35222 1-781)

Solubility in PBS = assay type: physicochemical
Outline: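 Steps: ultracentrifuge the peptide PBS solution, inject the supernatant on HPLC, inject a 50 μM peptide DMSO solution as reference, then calculate solubility as area ratio (PBS/DMSO) × 50 uM.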

[3] = fluorescence polarization, read-out: beta-Catenin FP IC50
[4] = absolute IC50, read-out: NanoBRET Abs IC50

Row | Compound | IC50 [1, 3] [nM] | IC50 [2, 4] [nM] | Solubility (Solubility in PBS) [µM] | Solubility (Solubility in PBS; Solubility (uM)) [µM] | IC50 ([1]; beta-Catenin FP IC50, fluorescence polarization) [nM] | IC50 ([2]; NanoBRET Abs IC50, absolute IC50) [nM]
1 | C[C@@H]1NC(=O)[C@H](C)NC(=O)[C@H](CC(=O)O)NC(=O)[C@H](CC(=O)O)NC(=O)C2(CCCC=CCCCCCC[C@@](C)(C(=O)N[C@@H](Cc3ccccc3Cl)C(=O)N[C@@H](Cc3csc4ccccc34)C(=O)N[C@@H](CCC(N)=O)C(N)=O)NC(=O)[C@H]([C@@H](C)O)NC(=O)[C@H](Cc3ccccc3)NC1=O)CCCC=CC[C@]1(CCCN1S(C)(=O)=O)C(=O)N[C@@H](CC(=O)O)C(=O)N[C@@H](CC(C)(C)C)C(=O)N2 (stereo partly drawn) [I-1260, MeSO2-PL3-Asp-Npg-B5-Asp-Asp-Ala-Ala-Phe-Thr-S8-2C1F-BztA-Gln-NH2] | 23 | 24000 | 50 (≈ 96.3 µg/mL) | – | – | –
2 | COCCC(=O)N1CCC[C@]12CC=CCCCC1(CCCC=CCCCCCC[C@@](C)(C(=O)N[C@@H](Cc3ccccc3Cl)C(=O)N[C@@H](Cc3csc4ccccc34)C(=O)N[C@@H](CCC(N)=O)C(N)=O)NC(=O)[C@H]([C@@H](C)O)NC(=O)[C@H](Cc3ccccc3)NC(=O)[C@H](C)NC(=O)[C@H](C)NC(=O)[C@H](CC(=O)O)NC(=O)[C@H](CC(=O)O)NC1=O)NC(=O)[C@H](CC(C)(C)C)NC(=O)[C@H](CC(=O)O)NC2=O (stereo partly drawn) [I-1261, MeOPr-PL3-Asp-Npg-B5-Asp-Asp-Ala-Ala-Phe-Thr-S8-2C1F-BztA-Gln-NH2] | 31 | 19800 | 50 (≈ 96.7 µg/mL) | – | – | –
3 | CC(=O)N1CCC[C@]12CC=CCCCC1(CCCC=CCCCOC(=O)N3CC[C@@](C(=O)N[C@@H](Cc4ccccc4)C(=O)N[C@@H](Cc4csc5ccccc45)C(=O)N[C@@H](CO)C(N)=O)(C3)NC(=O)[C@H]([C@@H](C)O)NC(=O)[C@H](Cc3ccccc3)NC(=O)[C@H](C)NC(=O)[C@H](C)NC(=O)[C@H]([C@@H](C)O)NC(=O)[C@H](CC(=O)O)NC1=O)NC(=O)[C@H](CC(C)(C)C)NC(=O)[C@H](CC(=O)O)NC2=O (stereo partly drawn) [I-1263, Ac-PL3-Asp-Npg-B5-Asp-Thr-Ala-Ala-Phe-Thr-PyrS2-Phe-BztA-Ser-NH2] | 43 | 20000 | – | 12 (≈ 22.1 µg/mL) | – | –
4 | CC(=O)N1CCC[C@]12CC=CCCCC1(CCCC=CCCCOC(=O)N3CC[C@@](C(=O)N[C@@H](Cc4ccccc4)C(=O)N[C@@H](Cc4csc5ccccc45)C(=O)N[C@@H](CO)C(N)=O)(C3)NC(=O)[C@H]([C@@H](C)O)NC(=O)[C@H](Cc3ccccc3)NC(=O)[C@H](C)NC(=O)[C@H](CC(C)C)NC(=O)[C@H]([C@@H](C)O)NC(=O)[C@H](CC(=O)O)NC1=O)NC(=O)[C@H](CC(C)(C)C)NC(=O)[C@H](CC(=O)O)NC2=O (stereo partly drawn) [I-1264, Ac-PL3-Asp-Npg-B5-Asp-Thr-Leu-Ala-Phe-Thr-PyrS2-Phe-BztA-Ser-NH2] | – | – | 10 (≈ 18.9 µg/mL) | – | 157 | > 20000
5 | CC(=O)N1CCC[C@]12CC=CCCCC1(CCCC=CCCCOC(=O)N3CC[C@@](C(=O)N[C@@H](Cc4ccccc4)C(=O)N[C@@H](Cc4csc5ccccc45)C(=O)N[C@@H](CO)C(N)=O)(C3)NC(=O)[C@H]([C@@H](C)O)NC(=O)[C@H](Cc3ccccc3)NC(=O)[C@H](CC(C)C)NC(=O)[C@H](C)NC(=O)[C@H]([C@@H](C)O)NC(=O)[C@H](CC(=O)O)NC1=O)NC(=O)[C@H](CC(C)(C)C)NC(=O)[C@H](CC(=O)O)NC2=O (stereo partly drawn) [I-1265, Ac-PL3-Asp-Npg-B5-Asp-Thr-Ala-Leu-Phe-Thr-PyrS2-Phe-BztA-Ser-NH2] | 152 | 22700 | 10 (≈ 18.9 µg/mL) | – | – | –
6 | CC(=O)N1CCC[C@]12CC=CCCCC1(CCCC=CCCCOC(=O)N3CC[C@@](C(=O)N[C@@H](Cc4ccccc4)C(=O)N[C@@H](Cc4csc5ccccc45)C(=O)N[C@@H](CO)C(N)=O)(C3)NC(=O)[C@H]([C@@H](C)O)NC(=O)[C@H](Cc3cccc4ccccc34)NC(=O)[C@H](C)NC(=O)[C@H](C)NC(=O)[C@H]([C@@H](C)O)NC(=O)[C@H](CC(=O)O)NC1=O)NC(=O)[C@H](CC(C)(C)C)NC(=O)[C@H](CC(=O)O)NC2=O (stereo partly drawn) [I-1266, Ac-PL3-Asp-Npg-B5-Asp-Thr-Ala-Ala-1NapA-Thr-PyrS2-Phe-BztA-Ser-NH2] | 755 | > 20000 | 10 (≈ 18.9 µg/mL) | – | – | –
7 | CC(=O)N1CCC[C@]12CC=CCCCC1(CCCC=CCCCOC(=O)N3CC[C@@](C(=O)N[C@@H](Cc4ccccc4)C(=O)N[C@@H](Cc4csc5ccccc45)C(=O)N[C@@H](CO)C(N)=O)(C3)NC(=O)[C@H]([C@@H](C)O)NC(=O)[C@H](Cc3ccc4ccccc4c3)NC(=O)[C@H](C)NC(=O)[C@H](C)NC(=O)[C@H]([C@@H](C)O)NC(=O)[C@H](CC(=O)O)NC1=O)NC(=O)[C@H](CC(C)(C)C)NC(=O)[C@H](CC(=O)O)NC2=O (stereo partly drawn) [I-1267, Ac-PL3-Asp-Npg-B5-Asp-Thr-Ala-Ala-2NapA-Thr-PyrS2-Phe-BztA-Ser-NH2] | 181 | 36900 | 10 (≈ 18.9 µg/mL) | – | – | –
8 | CC(=O)N1CCC[C@]12CC=CCCCC1(CCCC=CCCCOC(=O)N3CC[C@@](C(=O)N[C@@H](Cc4cccc5ccccc45)C(=O)N[C@@H](Cc4csc5ccccc45)C(=O)N[C@@H](CO)C(N)=O)(C3)NC(=O)[C@H]([C@@H](C)O)NC(=O)[C@H](Cc3ccccc3)NC(=O)[C@H](C)NC(=O)[C@H](C)NC(=O)[C@H]([C@@H](C)O)NC(=O)[C@H](CC(=O)O)NC1=O)NC(=O)[C@H](CC(C)(C)C)NC(=O)[C@H](CC(=O)O)NC2=O (stereo partly drawn) [I-1269, Ac-PL3-Asp-Npg-B5-Asp-Thr-Ala-Ala-Phe-Thr-PyrS2-1NapA-BztA-Ser-NH2] | 173 | 17600 | 10 (≈ 18.9 µg/mL) | – | – | –
9 | CC(=O)N1CCC[C@]12CC=CCCCC1(CCCC=CCCCOC(=O)N3CC[C@@](C(=O)N[C@@H](Cc4ccccc4Cl)C(=O)N[C@@H](Cc4csc5ccccc45)C(=O)N[C@H](C(N)=O)[C@@H](C)O)(C3)NC(=O)[C@H]([C@@H](C)O)NC(=O)[C@H](Cc3ccccc3)NC(=O)[C@H](C)NC(=O)[C@H](CCCCNC(C)C)NC(=O)[C@H](CC(=O)O)NC(=O)[C@H](CC(=O)O)NC1=O)NC(=O)[C@H](CC(C)(C)C)NC(=O)[C@H](CC(=O)O)NC2=O (stereo partly drawn) [I-1273, Ac-PL3-Asp-Npg-B5-Asp-Asp-iPrLys-Ala-Phe-Thr-PyrS2-2C1F-BztA-Thr-NH2] | 9 | > 20000 | – | 32 (≈ 64.2 µg/mL) | – | –
10 | CC(=O)N1CCC[C@]12CC=CCCCC1(CCCC=CCCCOC(=O)N3CC[C@@](C(=O)N[C@@H](Cc4ccccc4Cl)C(=O)N[C@@H](Cc4csc5ccccc45)C(=O)N[C@@H](CC(C)C)C(N)=O)(C3)NC(=O)[C@H]([C@@H](C)O)NC(=O)[C@H](Cc3ccccc3)NC(=O)[C@H](C)NC(=O)[C@H](CCCCNC(C)C)NC(=O)[C@H](CC(=O)O)NC(=O)[C@H](CC(=O)O)NC1=O)NC(=O)[C@H](CC(C)(C)C)NC(=O)[C@H](CC(=O)O)NC2=O (stereo partly drawn) [I-1274, Ac-PL3-Asp-Npg-B5-Asp-Asp-iPrLys-Ala-Phe-Thr-PyrS2-2C1F-BztA-Leu-NH2] | 13 | > 20000 | 10 (≈ 20.2 µg/mL) | – | – | –
11 | CC(=O)N1CCC[C@]12CC=CCCCC1(CCCC=CCCCOC(=O)N3CC[C@@](C(=O)N[C@@H](Cc4ccccc4Cl)C(=O)N[C@@H](Cc4csc5ccccc45)C(=O)N[C@@H](CCC(N)=O)C(N)=O)(C3)NC(=O)[C@H](CCCCNC(C)C)NC(=O)[C@H](Cc3ccccc3)NC(=O)[C@H](C)NC(=O)[C@H](C)NC(=O)[C@H](CC(=O)O)NC(=O)[C@H](CC(=O)O)NC1=O)NC(=O)[C@H](CC(C)(C)C)NC(=O)[C@H](CC(=O)O)NC2=O (stereo partly drawn) [I-1278, Ac-PL3-Asp-Npg-B5-Asp-Asp-Ala-Ala-Phe-iPrLys-PyrS2-2C1F-BztA-Gln-NH2] | 10 | 18000 | – | 25 (≈ 50.1 µg/mL) | – | –
12 | CC(=O)N1CCC[C@]12CC=CCCCC1(CCCC=CCCCOC(=O)N3CC[C@@](C(=O)N[C@@H](Cc4ccccc4Cl)C(=O)N[C@@H](Cc4csc5ccccc45)C(=O)N[C@H](C(N)=O)[C@@H](C)O)(C3)NC(=O)[C@H](CCCCNC(C)C)NC(=O)[C@H](Cc3ccccc3)NC(=O)[C@H](C)NC(=O)[C@H](C)NC(=O)[C@H](CC(=O)O)NC(=O)[C@H](CC(=O)O)NC1=O)NC(=O)[C@H](CC(C)(C)C)NC(=O)[C@H](CC(=O)O)NC2=O (stereo partly drawn) [I-1279, Ac-PL3-Asp-Npg-B5-Asp-Asp-Ala-Ala-Phe-iPrLys-PyrS2-2C1F-BztA-Thr-NH2] | 12 | 22900 | – | 14 (≈ 27.7 µg/mL) | – | –
13 | CC(=O)N1CCC[C@]12CC=CCCCC1(CCCC=CCCCOC(=O)N3CC[C@@](C(=O)N[C@@H](Cc4ccccc4Cl)C(=O)N[C@@H](Cc4csc5ccccc45)C(=O)N[C@@H](CC(C)C)C(N)=O)(C3)NC(=O)[C@H](CCCCNC(C)C)NC(=O)[C@H](Cc3ccccc3)NC(=O)[C@H](C)NC(=O)[C@H](C)NC(=O)[C@H](CC(=O)O)NC(=O)[C@H](CC(=O)O)NC1=O)NC(=O)[C@H](CC(C)(C)C)NC(=O)[C@H](CC(=O)O)NC2=O (stereo partly drawn) [I-1280, Ac-PL3-Asp-Npg-B5-Asp-Asp-Ala-Ala-Phe-iPrLys-PyrS2-2C1F-BztA-Leu-NH2] | 22 | 24700 | 10 (≈ 19.9 µg/mL) | – | – | –
